{"source": "patent US8278437B2", "about": "“Hydroxypropyl-sulfobutyl-beta-cyclodextrin, the preparation method, the analytical method, and the pharmacutical application thereof” (priority 2005, dated 2012)", "key": {"[1]": {"tested_on": "rat", "details": "cited from earlier work"}, "[2]": {"tested_on": "mouse", "details": "cited from earlier work"}, "[3]": {"tested_on": "dog", "details": "cited from earlier work"}, "[4]": {"tested_on": "Kunming mice", "assay": "Effect on mouse's spontaneous activities", "type": "in vivo", "details": "positive control 2 mg/kg", "procedure": "(Bibliography: 1. Xu, Shuyun Pharmacological Test Methodology, 2nd version, P.641, People Health Press, Beijing, 1991. 2. Medicine Secretary for the Ministry of Health, Guidelines on Preclinical Study of New Pharmaceuticals (weaten drugs), P. 42, July, 1993.) • 1. […] Effect on mouse's spontaneity times: (see Table 15).\nEffect on the frequency of mice' spontaneous activities: healthy mice, and 50 mice whose frequency of activities was 220-320 within 5 min were selected and randomly divided into five groups, the establishment of dosages were the same as the above. The frequency of activity at o min were measured before drug administration, and then were conducted by intragastric administration, 30, 60, 120 and 180 min later, the frequency of activities within 5 min was measured and recorded respectively, then compared with that of the control group. The measuring time was the period between 9:00 am and 4:00 pm each day. A Six-light channel spontaneous activity instrument was used for one mouse, kept at 24-26° C. of room temperature of; and kept quiet; the test was carried out after the test boxes were covered with black cloth."}, "[5]": {"assay": "physchem", "details": "phosphate buffer, 25 °C, pH 6.86, aqueous buffer, thermodynamic from solid"}, "[6]": {"assay": "Solubilizing test of puerarin", "type": "physicochemical", "details": "25 °C, pH 6.86, aqueous buffer, thermodynamic from solid", "source_text": "The standard curve was plotted by concentration C against A (μg/mL) to obtain A=66.608 C+0.0017 R2=0.9999."}, "[7]": {"tested_on": "red blood cells", "assay": "Hemolytic test", "type": "cell-based", "details": "5% rabbit red blood cell suspension, 37° C., 30 min", "procedure": "Under the present invention, using β-CD, HP-β-CD, SBE7-β-CD, SBE4-β-CD as controls, the hemolytic test results of 11 kinds of compounds are selected, shown in Table 13 and FIG. 9-FIG. 11.\n10 ml of fresh rabbit blood were fetched to a clean conical flask, stirred with glass rod for 10 min to remove the fibers, then added with about 20 times of normal saline solution and placed in the centrifuge, 1500 rps/min, for about 3 min, then the supernatant was removed, washed repeated for several times until the supernatant solution becomes clear. The prepared red blood cells were prepared to 5% of suspension by normal saline solution. (Reference: State Drug Administration, Technical requirement of TCM injection study, Technical requirement of TCM new drug study, 1999, 11, 12)"}, "[8]": {"assay": "Inclusion constant with puerarin, UV spectrophotometry", "type": "binding", "details": "PBS pH 6.86, 250 nm", "source_text": "(§1) PBS of PH6.86 was used to prepare puerarin dilute solution, and this dilute solution was used to prepare HP4-SBE2-β-CD sample solution. […] A straight line by 1/ΔA against 1/[CD]0 was plotted, and the inclusion constant Ka of puerarin/HP4-SBE2-β-CD can be obtained according to the value of intercept/slope."}, "[9]": {"tested_on": "mouse", "details": "40 mg/kg, 120 mg/kg and 400 mg/kg; cited from earlier work"}, "[10]": {"assay": "Inclusion constant with prazosin hydrochloride, UV spectrophotometry", "type": "binding", "details": "PBS pH 6.86, 250 nm", "source_text": "as §1, with “hydrochloride prazosin” for “puerarin”, “A” for “A straight”, “prazosin hydrochloride/HP4-SBE2-β-CD” for “puerarin/HP4-SBE2-β-CD”"}, "[11]": {"details": "10-100.0 mg/kg; cited from earlier work"}, "[12]": {"assay": "Inclusion constant with ibuprofen, UV spectrophotometry", "type": "binding", "details": "PBS pH 6.86, 265 nm"}, "[13]": {"tested_on": "mouse stomach intestine", "details": "120 mg/kg and 400 mg/kg; cited from earlier work"}}, "note": "“And” between values parts separate entries of the source, which are not always exact repeats. Equal entries are not always repeated. Structures can show the parent of a compound that is named as a salt. Where two headings read alike, the source gives them in different places.", "data": [{"molecule": "CC(O)CCO", "note": "(stereo not drawn) [1,3-Butylene glycol]", "values": [{"measurement": "LD50", "setting": "[1]; Oral", "value": "22.8 mg/kg and 23.31 mg/kg"}, {"measurement": "LD50", "setting": "[1]; subcutaneous injection", "value": "20.06 mg/kg and 16.51 mg/kg"}]}, {"molecule": "OCc1ccccc1", "note": "[Benzyl alcohol]", "values": [{"measurement": "LD50", "setting": "[1]; Oral", "value": 1230, "unit": "mg/kg"}, {"measurement": "LD50", "setting": "[2]; Oral", "value": 1580, "unit": "mg/kg"}]}, {"molecule": "O=C(OCc1ccccc1)c1ccccc1", "note": "[Benzyl benzoate]", "values": [{"measurement": "LD50", "setting": "[2]; Oral", "value": 1400, "unit": "mg/kg"}, {"measurement": "LD50", "setting": "[2]; cutaneous absorption", "value": 4000, "unit": "mg/kg"}]}, {"molecule": "CN(C)C=O", "note": "[DMF]", "values": [{"measurement": "LD50", "setting": "[2]; Oral", "value": 2800, "unit": "mg/kg"}, {"measurement": "LD50", "setting": "[2]; intraperitoneal injection", "value": 1400, "unit": "mg/kg"}, {"measurement": "LD50", "setting": "[2]; intravenous injection", "value": 2000, "unit": "mg/kg"}, {"measurement": "LDLo", "setting": "[2]; subcutaneous injection", "value": 1000, "unit": "mg/kg"}]}, {"molecule": "C[S+](C)[O-]", "note": "[DMSO]", "values": [{"measurement": "LD50", "setting": "[2]; Oral", "value": 16500, "unit": "mg/kg"}, {"measurement": "LD50", "setting": "[2]; intraperitoneal injection", "value": 3000, "unit": "mg/kg"}, {"measurement": "LD50", "setting": "[2]; intravenous injection", "value": 5750, "unit": "mg/kg"}, {"measurement": "LD50", "setting": "[2]; subcutaneous injection", "value": 14, "unit": "mg/kg"}]}, {"molecule": "CC(=O)OCC(COC(C)=O)OC(C)=O", "note": "[Glyceryl triacetate]", "values": [{"measurement": "LD50", "setting": "[2]; subcutaneous injection", "value": "2670 mg/kg and 3250 mg/kg"}]}, {"molecule": "OC[C@@H](O)[C@@H](O)[C@H](O)[C@H](O)CO", "note": "[Mannitol]", "values": [{"measurement": "LD50", "setting": "[1]; Oral", "value": 17, "unit": "mg/kg"}, {"measurement": "LD50", "setting": "[2]; Oral", "value": 22, "unit": "mg/kg"}, {"measurement": "LD50", "setting": "[2]; intraperitoneal injection", "value": 14, "unit": "mg/kg"}, {"measurement": "LD50", "setting": "[2]; intravenous injection", "value": 17, "unit": "mg/kg"}]}, {"molecule": "CC(O)CO", "note": "(stereo not drawn) [Propylene glycol]", "values": [{"measurement": "LD50", "setting": "[3]; Oral", "value": 22, "unit": "mg/kg"}, {"measurement": "LD50", "setting": "[3]; intravenous injection", "value": 26, "unit": "mg/kg"}]}, {"molecule": "CCC(C)(C)O", "note": "[amyl alcohol-tert]", "values": [{"measurement": "LD50", "setting": "[1]; Oral", "value": 1000, "unit": "mg/kg"}, {"measurement": "LD50", "setting": "[2]; subcutaneous injection", "value": 2100, "unit": "mg/kg"}]}, {"molecule": "CN(C)CCCN1c2ccccc2Sc2ccc(Cl)cc21", "note": "[chloropromazine]", "values": [{"measurement": "frequency of spontaneous activities", "setting": "[4]; 0 min", "value": "302 ± 75", "unit": "times/5 min"}, {"measurement": "frequency of spontaneous activities", "setting": "[4]; 30 min", "value": "57 ± 40", "unit": "times/5 min"}, {"measurement": "frequency of spontaneous activities", "setting": "[4]; 60 min", "value": "16 ± 20", "unit": "times/5 min"}, {"measurement": "frequency of spontaneous activities", "setting": "[4]; 120 min", "value": "22 ± 19", "unit": "times/5 min"}, {"measurement": "frequency of spontaneous activities", "setting": "[4]; 180 min", "value": "25 ± 28", "unit": "times/5 min"}]}, {"molecule": "CCOC(=O)C(C)O", "note": "(stereo not drawn) [ethyl lactate]", "values": [{"measurement": "LD50", "setting": "[2]; intravenous injection", "value": "0.6 (ml)"}, {"measurement": "LD50", "setting": "[2]; subcutaneous injection", "value": "2.5 (ml)"}]}, {"molecule": "COc1cc2nc(N3CCN(C(=O)c4ccco4)CC3)nc(N)c2cc1OC", "note": "[prazosin hydrochloride]", "values": [{"measurement": "solubility at 12 h", "setting": "[5]", "value": 0.0495, "unit": "µg/mL"}]}, {"molecule": "O=c1c(-c2ccc(O)cc2)coc2c([C@@H]3O[C@H](CO)[C@@H](O)[C@H](O)[C@H]3O)c(O)ccc12", "note": "[puerarin]", "values": [{"measurement": "solubility at 12 h", "setting": "[6]", "value": 5800, "unit": "µg/mL"}]}, {"molecule": "OC[C@H]1O[C@@H]2O[C@H]3[C@H](O)[C@@H](O)[C@@H](O[C@H]4[C@H](O)[C@@H](O)[C@@H](O[C@H]5[C@H](O)[C@@H](O)[C@@H](O[C@H]6[C@H](O)[C@@H](O)[C@@H](O[C@H]7[C@H](O)[C@@H](O)[C@@H](O[C@H]8[C@H](O)[C@@H](O)[C@@H](O[C@H]1[C@H](O)[C@H]2O)O[C@@H]8CO)O[C@@H]7CO)O[C@@H]6CO)O[C@@H]5CO)O[C@@H]4CO)O[C@@H]3CO", "note": "[β-CD, β-cyclodextrin]", "values": [{"measurement": "Concentration when the degree of hemolysis of 50 percent", "setting": "[7]", "value": 1140, "unit": "µg/mL"}, {"measurement": "concentration without hemolysis", "setting": "[7]", "value": 280, "unit": "µg/mL"}, {"measurement": "LD50", "setting": "[2]; intraperitoneal injection", "value": 788, "unit": "mg/kg"}]}, {"molecule": "PEG400", "values": [{"measurement": "LD50", "setting": "[2]; intraperitoneal injection", "value": 4200, "unit": "mg/kg"}, {"measurement": "LD50", "setting": "[2]; subcutaneous injection", "value": "10 (ml)"}]}, {"molecule": "Sodium deoxycholate", "values": [{"measurement": "LD50", "setting": "[2]; Oral", "value": 815, "unit": "mg/kg"}, {"measurement": "LD50", "setting": "[2]; intraperitoneal injection", "value": 1400, "unit": "mg/kg"}, {"measurement": "LD50", "setting": "[2]; subcutaneous injection", "value": 75, "unit": "mg/kg"}]}, {"molecule": "hydroxypropyl-β-CD [HP-β-CD]", "values": [{"measurement": "inclusion constant Ka", "setting": "[8]", "value": 345}, {"measurement": "Concentration when the degree of hemolysis of 50 percent", "setting": "[7]", "value": 12610, "unit": "µg/mL"}, {"measurement": "concentration without hemolysis", "setting": "[7]", "value": 8160, "unit": "µg/mL"}, {"measurement": "effect on mouse fasting blood glucose", "setting": "[9]", "value": "no obvious effect on mouse fasting blood glucose"}, {"measurement": "inclusion constant Ka", "setting": "[10]", "value": 597}, {"measurement": "effect on respiratory amplitude, respiratory frequency, blood pressure and ECG", "setting": "[11]", "value": "no obvious effect"}, {"measurement": "inclusion constant Ka", "setting": "[12]", "value": 221}, {"measurement": "impellent function of mouse stomach intestine", "setting": "[13]", "value": "slight reduction"}]}]}
